# Assay results taken from patent US11976057B2, “MrgX2 antagonists” (GlaxoSmithKline Intellectual Property Development Limited, priority 2020, dated 2024).
# Biological target: T1, human MRGPRX2 (Homo sapiens, UniProt Q96LB1)
# T1 sequence (Q96LB1 1-330): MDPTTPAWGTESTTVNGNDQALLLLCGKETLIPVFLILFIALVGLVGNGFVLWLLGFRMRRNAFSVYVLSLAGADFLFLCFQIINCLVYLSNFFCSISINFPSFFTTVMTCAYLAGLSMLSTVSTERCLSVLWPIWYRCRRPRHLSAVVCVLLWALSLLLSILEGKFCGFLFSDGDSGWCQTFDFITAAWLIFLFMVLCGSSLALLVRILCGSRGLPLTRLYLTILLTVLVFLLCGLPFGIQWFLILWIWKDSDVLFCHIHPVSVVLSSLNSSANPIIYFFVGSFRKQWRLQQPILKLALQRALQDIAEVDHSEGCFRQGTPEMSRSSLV
# Assay: Ca2+ mobilization assay (FLIPR TETRA): inhibition of Cortistatin-14 mediated MRGPRX2 activation
row,Compound,IC50 [nM]
1,"C[C@@H](C(=O)Nc1ncc(OCC2CC2)cn1)N1CCC(F)(F)[C@@H](c2ccc(=O)[nH]c2)C1 [Example 35, (S)-N-(5-(cyclopropyl-methoxy)pyrimidin-2-yl)-2-((S)-4,4-difluoro-3-(6-oxo-1,6-dihydropyridin-3-yl)piperidin-1-yl)propanamide]",100 to 3160
2,"C[C@@H](C(=O)Nc1ccc(Oc2ccc(Cl)cn2)cn1)N1CCC(F)(F)[C@@H](c2ccc(=O)[nH]c2)C1 [Example 88, (S)-N-(5-((5-chloropyridin-2-yl)oxy)pyridin-2-yl)-2-((S)-4,4-difluoro-3-(6-oxo-1,6-dihydropyridin-3-yl)piperidin-1-yl)propanamide]",10 to 100
3,"C[C@@H](C(=O)Nc1ccc(OCC2CC2)nn1)N1CCC(F)(F)[C@@H](c2c[nH]c(=O)c(N)n2)C1 (single isomer, unassigned) [Example 104]",≤ 10
4,"C[C@@H](C(=O)Nc1cnc(Oc2ccc(F)c(F)c2F)cn1)N1CCC(F)(F)[C@@H](c2cc[n+]([O-])cc2)C1 [Example 122, 4-((S)-4,4-difluoro-1-((S)-1-oxo-1-((5-(2,3,4-trifluorophenoxy)pyrazin-2-yl)amino)propan-2-yl)piperidin-3-yl)pyridine 1-oxide]",≤ 10
5,"C[C@@H](C(=O)Nc1ccc(Cc2ccccc2)cn1)N1CCC(F)(F)[C@@H](c2ccc(=O)[nH]c2)C1 [Example 7, (S)-N-(5-benzylpyridin-2-yl)-2-((S)-4,4-difluoro-3-(6-oxo-1,6-dihydropyridin-3-yl)piperidin-1-yl)propanamide]",≤ 10
6,"CC(C(=O)Nc1ccc(CC2CCCC2)cn1)N1CCC(F)(F)[C@@H](c2ccc(=O)[nH]c2)C1 (stereo partly drawn) [Example 33, N-(5-(cyclopentyl-methyl)pyridin-2-yl)-2-((S)-4,4-difluoro-3-(6-oxo-1,6-dihydropyridin-3-yl)piperidin-1-yl)propanamide]",100 to 3160
7,"C[C@@H](C(=O)Nc1ccc(Oc2ccccn2)cn1)N1CCC(F)(F)[C@@H](c2cc[n+]([O-])cc2)C1 [Example 126, 4-((S)-4,4-difluoro-1-((S)-1-oxo-1-((5-(pyridin-2-yloxy)pyridin-2-yl)amino)propan-2-yl)piperidin-3-yl)pyridine 1-oxide]",10 to 100
8,"CC(C(=O)Nc1ccc(Oc2ccccc2)cn1)N1CCC(F)(F)C(c2c[nH]c(=O)c(N)c2)C1 (stereo not drawn) [Example 139, 2-(3-(5-amino-6-oxo-1,6-dihydropyridin-3-yl)-4,4-difluoropiperidin-1-yl)-N-(5-phenoxypyridin-2-yl)propanamide]",10 to 100
9,C[C@@H](C(=O)Nc1ccc(Oc2ccc(F)cn2)cn1)N1CCC(F)(F)[C@@H](c2cc[n+]([O-])cc2)C1 [Example 115],10 to 100
10,"C[C@@H](C(=O)Nc1ccc(C(F)(F)c2ccc(F)cc2)cn1)N1CCC(F)(F)[C@@H](c2ccc(=O)[nH]c2)C1 [Example 102, (S)-N-(5-(difluoro(4-fluorophenyl)methyl)pyridin-2-yl)-2-((S)-4,4-difluoro-3-(6-oxo-1,6-dihydropyridin-3-yl)piperidin-1-yl)propanamide]",10 to 100
11,"C[C@@H](C(=O)Nc1ccc(OCC2CC2)nn1)N1CCC(F)(F)[C@@H](c2c[nH]c(=O)c(N)c2)C1 [Example 140, (S)-2-((S)-3-(5-amino-6-oxo-1,6-dihydropyridin-3-yl)-4,4-difluoropiperidin-1-yl)-N-(6-(cyclopropylmethoxy)pyridazin-3-yl)propanamide]",10 to 100
12,"C[C@@H](C(=O)Nc1ccc(OC2CCCC2)cn1)N1CCC(F)(F)[C@@H](c2ccc(=O)[nH]c2)C1 [Example 9, (S)-N-(5-(cyclopentyloxy)pyridin-2-yl)-2-((S)-4,4-difluoro-3-(6-oxo-1,6-dihydropyridin-3-yl)piperidin-1-yl)propanamide]",10 to 100

# More lines, now with the values ahead:
row,IC50 [nM],Compound
1,100 to 3160,C[C@@H](C(=O)Nc1ccc(Cl)cn1)N1CCC[C@@H](c2c[nH]c(=O)c(N)c2)C1 [Example 170]
2,100 to 3160,"C[C@@H](C(=O)Nc1ccc(F)cn1)N1CCC(F)(F)C(c2c[nH]c(=O)c(C(N)C(F)(F)F)c2)C1 (stereo partly drawn) [Example 232, (2S)-2-(3-(5-(1-amino-2,2,2-trifluoroethyl)-6-oxo-1,6-dihydropyridin-3-yl)-4,4-difluoropiperidin-1-yl)-N-(5-fluoropyridin-2-yl)propanamide]"
3,100 to 3160,"CCn1cc(C2CN([C@@H](C)C(=O)Nc3ccc(F)cn3)CCC2(F)F)ccc1=O (stereo partly drawn) [Example 188, (2S)-2-(3-(1-ethyl-6-oxo-1,6-dihydropyridin-3-yl)-4,4-difluoropiperidin-1-yl)-N-(5-fluoropyridin-2-yl)propanamide]"
4,≤ 10,"C[C@@H](C(=O)Nc1ccc(Oc2ccc(F)cn2)cn1)N1CCC(F)(F)[C@@H](c2c[nH]c(=O)c(CN)c2)C1 [Example 208, (S)-2-((S)-3-(5-(aminomethyl)-6-oxo-1,6-dihydropyridin-3-yl)-4,4-difluoropiperidin-1-yl)-N-(5-((5-fluoropyridin-2-yl)oxy)pyridin-2-yl)propanamide]"
5,10 to 100,"C[C@@H](C(=O)Nc1ccc(F)cn1)N1CCC(F)(F)[C@@H](c2c[nH]c(=O)c(CC(F)(F)F)c2)C1 [Example 151, (S)-2-((S)-4,4-difluoro-3-(6-oxo-5-(2,2,2-trifluoroethyl)-1,6-dihydropyridin-3-yl)piperidin-1-yl)-N-(5-fluoropyridin-2-yl)propanamide]"
6,100 to 3160,"C[C@@H](C(=O)Nc1ccc(Cl)cn1)N1CCC[C@@H](c2c[nH]c(=O)c(C3CC3)c2)C1 (single isomer, unassigned) [Example 179]"
7,≤ 10,"C[C@@H](C(=O)Nc1ccc(Oc2ccc(F)cc2F)cn1)N1CCC(F)(F)C(c2c[nH]c(=O)c(C(O)C(F)(F)F)c2)C1 (stereo partly drawn) [Example 212, (2S)-2-(4,4-difluoro-3-(6-oxo-5-(2,2,2-trifluoro-1-hydroxyethyl)-1,6-dihydropyridin-3-yl)piperidin-1-yl)-N-(5-(2,4-difluorophenoxy)pyridin-2-yl)propanamide]"
8,10 to 100,"C[C@@H](C(=O)Nc1ccc(OCC2CC2)nn1)N1CCC(F)(F)C(c2c[nH]c(=O)c(Br)c2)C1 (stereo partly drawn) [Example 221, (2S)-2-(3-(5-bromo-6-oxo-1,6-dihydropyridin-3-yl)-4,4-difluoropiperidin-1-yl)-N-(6-(cyclopropylmethoxy)pyridazin-3-yl)propanamide]"
9,≤ 10,"C[C@@H](C(=O)Nc1ccc(Oc2ccc(F)cn2)cn1)[C@H]1CCC(F)(F)[C@@H](c2cc[n+]([O-])cc2)C1 [Example 294, 4-((1R,5S)-2,2-difluoro-5-((R)-1-((5-((5-fluoropyridin-2-yl)oxy)pyridin-2-yl)amino)-1-oxopropan-2-yl)cyclohexyl)pyridine 1-oxide]"
10,10 to 100,"C[C@@H](C(=O)Nc1ccc(F)cn1)N1CCC(F)(F)[C@@H](c2cc(N)c(=O)[nH]n2)C1 [Example 143, (S)-2-((R)-3-(5-amino-6-oxo-1,6-dihydropyridazin-3-yl)-4,4-difluoropiperidin-1-yl)-N-(5-fluoropyridin-2-yl)propanamide]"
11,≤ 10,"C[C@@H](C(=O)Nc1ccc(OCC2CC2)nn1)N1CCC(F)(F)[C@@H](c2c[nH]c(=O)c([C@H](O)C(F)(F)F)c2)C1 (single isomer, unassigned) [Example 210, (S)-N-(6-(cyclopropylmethoxy)pyridazin-3-yl)-2-((S)-4,4-difluoro-3-(6-oxo-5-((S)-2,2,2-trifluoro-1-hydroxyethyl)-1,6-dihydropyridin-3-yl)piperidin-1-yl)propanamide or (S)-N-(6-(cyclopropylmethoxy(pyridazin-3-yl)-2-((S)-4,4-difluoro-3-(6-oxo-5-((R)-2,2,2-trifluoro-1-hydroxyethyl)-1,6-dihydroypridin-3-yl)piperidin-1-yl)propanamide]"
12,10 to 100,"CC(C(=O)Nc1ccc(Oc2ccc(F)cc2)cn1)N1CCC(F)(F)C(c2c[nH]c(=O)c(CN3CCOCC3)c2)C1 (stereo not drawn) [Example 226, 2-(4,4-difluoro-3-(5-(morpholinomethyl)-6-oxo-1,6-dihydropyridin-3-yl)piperidin-1-yl)-N-(5-(4-fluorophenoxy)pyridin-2-yl)propanamide]"
13,100 to 3160,"C[C@@H](C(=O)Nc1ccc(F)cn1)N1CCC(F)(F)[C@@H](c2c[nH]c(=O)c(CN)c2)C1 (single isomer, unassigned) [Example 201]"
14,100 to 3160,"C[C@@H](C(=O)Nc1ccc(F)cn1)N1CCC(F)(F)C(c2ccc(=O)n(CCS(C)(=O)=O)c2)C1 (stereo partly drawn) [Example 190, (2S)-2-(4,4-difluoro-3-(1-(2-(methylsulfonyl)ethyl)-6-oxo-1,6-dihydropyridin-3-yl)piperidin-1-yl)-N-(5-fluoropyridin-2-yl)propanamide]"
15,10 to 100,"C[C@@H](C(=O)Nc1cnc(Oc2ccc(F)cc2)cn1)[C@H]1CCC(F)(F)[C@@H](c2cc[n+]([O-])cc2)C1 [Example 292, 4-((1R,5S)-2,2-difluoro-5-((R)-1-((5-(4-fluorophenoxy)pyrazin-2-yl)amino)-1-oxopropan-2-yl)cyclohexyl)pyridine 1-oxide]"
16,10 to 100,"C[C@@H](C(=O)Nc1ccc(Oc2ccc(F)cn2)cn1)N1CCC(F)(F)[C@@H](c2c[nH]c(=O)c(CO)c2)C1 [Example 157, (S)-2-((S)-4,4-difluoro-3-(5-(hydroxymethyl)-6-oxo-1,6-dihydropyridin-3-yl)piperidin-1-yl)-N-(5-((5-fluoropyridin-2-yl)oxy)pyridin-2-yl)propanamide]"
17,≤ 10,"C[C@@H](C(=O)Nc1ccc(Oc2ccc(F)cc2F)cn1)[C@H]1CCC[C@@H](c2cc[n+]([O-])cc2)C1 [Example 289, 4-((1R,3S)-3-((R)-1-((5-(2,4-difluorophenoxy)pyridin-2-yl)amino)-1-oxopropan-2-yl)cyclohexyl)pyridine 1-oxide]"
18,100 to 3160,CC(C(=O)Nc1cnc(Oc2ccc(F)cc2CO)cn1)N1CCC(F)(F)[C@@H](c2cc[n+]([O-])cc2)C1 (stereo partly drawn) [Example 274]
